The text below walks through data of PubChem BioAssay (NCI).

Test systems include SW-620 colon; SK-MEL-2 melanoma; NCI/ADR-RES ovarian; SF-295 CNS; OVCAR-5 ovarian; SNB-75 CNS; IGROV1 ovarian; SF-268 CNS; HOP-62 NSCLC; SNB-19 CNS.
Test in all cases: DTP human tumour cell line panel, 48 h

Molecules are shown by their SMILES.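 The compound was tested at five concentrations on cells cultured in 96-well plates, with a 48-hour exposure period. TGI: concentration producing complete growth inhibition.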

For orientation: TGI means the concentration giving total growth inhibition. High values mean less potent growth arrest, low ones more potent growth arrest. Regarding `O=P(O)(O)C=C=C1CCCCC1`, the total growth inhibition concentration (TGI) with SW-620 colon, in the experiment on SK-MEL-2 melanoma, in the experiment with NCI/ADR-RES ovarian, in the experiment on SF-295 CNS, in the experiment with OVCAR-5 ovarian and in the experiment on SNB-75 CNS was over 100 µM in each case. The TGI with IGROV1 ovarian, in the experiment with SF-268 CNS, in the experiment with HOP-62 NSCLC and in the experiment with SNB-19 CNS was over 100 µM in each case.
As to `COc1ccc2c(c1)C(=O)C1CCC(=O)N1C2c1ccc2c(c1)OCO2` (stereo not given), the TGI is 23.7 µM in the experiment with SW-620 colon; 41.6 µM in the experiment on SK-MEL-2 melanoma; over 100 µM with NCI/ADR-RES ovarian; 36.3 µM in the experiment with SF-295 CNS; 28.1 µM with OVCAR-5 ovarian; 36.5 µM with SNB-75 CNS. Moreover, the concentration for total growth inhibition (TGI) was found to be 32.5 µM with IGROV1 ovarian, 53.3 µM in the experiment with SF-268 CNS, 42.8 µM in the experiment with HOP-62 NSCLC and 26.7 µM with SNB-19 CNS.
For `COc1cccc(NC(=O)CC(=O)N2N=C(C)C(N=Nc3ccc(C(=O)O)cc3)C2=O)c1` (stereo not given), the total growth inhibition concentration (TGI) is over 100 µM in the experiment on SW-620 colon; over 100 µM in the experiment with SK-MEL-2 melanoma; over 100 µM with NCI/ADR-RES ovarian; over 100 µM in the experiment on SF-295 CNS; over 100 µM in the experiment with OVCAR-5 ovarian; 45.1 µM in the experiment on SNB-75 CNS. Further, the concentration for total growth inhibition (TGI) with IGROV1 ovarian, in the experiment with SF-268 CNS, in the experiment on HOP-62 NSCLC and in the experiment with SNB-19 CNS was over 100 µM each time.
As for `CNC(=O)N(CCC#N)CCCN(C(=O)N(C)C)c1ccccc1`, the TGI in the experiment on SW-620 colon, in the experiment with SK-MEL-2 melanoma, in the experiment on NCI/ADR-RES ovarian, in the experiment on SF-295 CNS, in the experiment with OVCAR-5 ovarian and with SNB-75 CNS was over 100 µM in each case. Besides, the total growth inhibition concentration (TGI) in the experiment with IGROV1 ovarian, with SF-268 CNS, in the experiment with HOP-62 NSCLC and in the experiment with SNB-19 CNS was over 100 µM throughout.
Take `COc1ccc(C2SCC(=O)N2NC(=O)C(C)Oc2ccc(Cl)cc2Cl)cc1` (stereo not given): the total growth inhibition concentration (TGI) with SW-620 colon was over 100 µM; in the experiment on SK-MEL-2 melanoma, over 100 µM; in the experiment with NCI/ADR-RES ovarian, over 100 µM; in the experiment with SF-295 CNS, over 100 µM; in the experiment on OVCAR-5 ovarian, over 100 µM; with SNB-75 CNS it was 51.1 µM. Moreover, the concentration for total growth inhibition (TGI) is over 100 µM with IGROV1 ovarian, over 100 µM with SF-268 CNS, 48.2 µM with HOP-62 NSCLC and over 100 µM in the experiment on SNB-19 CNS.
Consider `COC(=O)C1CC23C=CCN4CC(C2C)C2(c5ccccc5NC12)C43` (stereo not given), for which the TGI in the experiment on SW-620 colon, with SK-MEL-2 melanoma, in the experiment on NCI/ADR-RES ovarian, with SF-295 CNS, with OVCAR-5 ovarian and with SNB-75 CNS was over 100 µM throughout. In addition, the TGI in the experiment with IGROV1 ovarian, with SF-268 CNS, with HOP-62 NSCLC and in the experiment on SNB-19 CNS was over 100 µM throughout.
